Source: patent US20180118786A1, “NOVEL lNHIBITORS OF THE ENZYME ACTIVATED FACTOR XII (FXIIA)” (ECOLE POLYTECHNIQUE FEDERALE DE LAUSANNE (EPFL), priority 2015, published 2018)
Starred links: 1 amine or outer side, 2 acyl side, 3 side chain; linkers in the order of their positions; H or OH if unused. Positions of bridges follow the written chain, without caps; N, C: chain ends. Non-standard residues stand in square brackets, D forms with d. Residues, ends and D or L forms follow the SMILES beside them. TATA = O=C(CC[*:1])N1CN(C(=O)CC[*:2])CN(C(=O)CC[*:3])C1; Phe(4-F) = N[C@@H](Cc1ccc(F)cc1)C(=O)O; β3hR = N=C(N)NCCC[C@H](N)CC(=O)O

Experiments:
[1] = biological target: T1, FXII activity (Mus musculus, UniProt Q80YC5); test: Inhibition of FXII activity in vivo; parameters: species or system BALB/c mice; conditions: mice
T1 construct: from tissue; host or cells: plasma of BALB/c mice after injection
T1 sequence (Q80YC5 20-597): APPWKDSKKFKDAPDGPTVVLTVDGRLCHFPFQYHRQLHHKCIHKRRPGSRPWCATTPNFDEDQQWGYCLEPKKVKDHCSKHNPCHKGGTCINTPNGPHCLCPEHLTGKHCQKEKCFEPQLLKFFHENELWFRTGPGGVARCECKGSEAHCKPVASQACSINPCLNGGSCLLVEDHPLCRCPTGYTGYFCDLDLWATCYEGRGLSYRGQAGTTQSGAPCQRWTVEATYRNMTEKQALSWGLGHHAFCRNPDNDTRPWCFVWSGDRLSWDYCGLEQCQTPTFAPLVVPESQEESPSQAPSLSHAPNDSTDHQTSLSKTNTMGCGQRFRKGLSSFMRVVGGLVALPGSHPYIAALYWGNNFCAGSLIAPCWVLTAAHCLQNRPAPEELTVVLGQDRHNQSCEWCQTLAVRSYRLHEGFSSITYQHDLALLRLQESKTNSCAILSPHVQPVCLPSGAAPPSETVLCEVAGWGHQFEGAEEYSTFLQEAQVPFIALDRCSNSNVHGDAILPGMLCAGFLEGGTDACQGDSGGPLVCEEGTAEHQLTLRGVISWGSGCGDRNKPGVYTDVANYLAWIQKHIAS
Method: Female BALB/c mice were anesthetized with 125 mg/kg pentobarbital. […] Five minutes later, blood was collected from the vena cava at a 1:9 blood to citrate ratio. Plasma was prepared by centrifugation at 2,400 g 10 minutes at RT. FXIIa activity was assessed as described above.

[2] = tested on: intrinsic pathway of coagulation; test: aPTT in human plasma (Example 1); type: biochemical
Method: (§1) aPTT, PT and FXII coagulant activity (FXII:c) measurements Coagulation times (aPTT, PT) and FXIIa activity were determined in human plasma using an automated blood coagulation analyzer (Sysmex CS-5100, Siemens, Eschborn, Germany) with according to the manufacturer's instructions (Siemens). Extrinsic coagulation was triggered with Innovin® (recombinant human tissue factor, synthetic phospholipids and calcium in stabilized HEPES buffer system; Dade Behring/Simens). Intrinsic coagulation was triggered with Pathromtin* SL (Siemens). Human plasma used in this study was derived from a pool of fresh frozen plasma units provided by the Service Regional Vaudois de Transfusion Sanguine, Switzerland.
(§2) Coagulation times (aPTT, PT) and FXIIa activity were determined, at least in duplicate, in human plasma using an automated blood coagulation analyzer (Sysmex CA-7000) with standard reagents according to the manufacturer's instructions (Siemens Healthcare, Eschborn, Germany). Human plasma used in this study was derived from a pool of fresh frozen plasma units provided by the Service Regional Vaudois de Transfusion Sanguine, Switzerland.

[3] = tested on: extrinsic pathway; test: PT in human plasma (Example 1); type: biochemical; conditions: 40 μM
Method: as §1, §2

[4] = tested on: thrombin generation in platelet poor plasma; test: Thrombin generation assay by CAT, TF-triggered or without trigger; type: biochemical, human; parameters: lag time: unit not given here
Method: (§3) Thrombin generation was performed as previously described with some modifications.30 In brief, 60 μL platelet poor plasma (PPP), 20 μL FXIIa inhibitor/HA buffer (Hepes 20 mM, NaCl 140 mM, pH 7.4, 5 mg/mL BSA), and 20 μL PPP reagent, PPP LOW reagent, MP reagent or Actin FS (1:170 diluted in HA buffer) were mixed in a 96-well microtiter plate (Immulon 2HB; Thermo Fisher Scientific) and incubated for 15 min at 37° C. Thrombin generation was triggered by the addition of 20 μL of substrate/calcium chloride buffer (FLUKA) at 37° C. Samples were tested in triplicate for each condition. Fluorogenic thrombin substrate hydrolysis was measured every 20 s for 120 min on a microplate fluorometer (Fluoroskan Ascent FL; Thermo Fisher Scientific) with a 390/460-nm (excitation/emission) filter set. Data analysis was performed on the Thrombinoscope software (Synapse By). PPP reagent (TF […], PL 4 μM), PPP LOW reagent (TF […], PL 4 μM), MP reagent (PL 4 μM), thrombin calibrator and FLUKA were purchased from Synapse By.
Venous blood was collected from healthy volunteers by antecubital venipuncture with 19-gauge needles in 3,2% (w/v) citrated Monovette plastic tubes. In order to minimize contact activation, the first collection tube containing EDTA was discarded according to standard procedures. […] Blood was then processed to PPP by an initial centrifugation step at 2,000 g for 5 min followed by a second centrifugation step at 10,000 g for 10 min. Plasma aliquots were stored at −80 until analysis.

[5] = tested on: thrombin generation in platelet poor plasma; test: as above; type: biochemical, human; conditions: 1 pM TF, 100 μg/mL inhibitor
[6] = in vitro; conditions: human, plasma
Method: (§6) Peptide (2 μl of 2 mM in H2O) was added to 398 μl human plasma (final peptide concentration was 10 μM in 400 μl final volume). The mixture was incubated in the water bath at 37° C. At 8 different time points (0 h, 30 min, 1 h, 2 h, 4 h, 8 h, 12 h, 24 h and in some cases 48 h) a sample of 30 μl was removed, diluted to 200 μl with the same buffer used for protease inhibition assay (see above) and heat-inactivated for 20 min at 65° C. During this step proteases present in plasma are being inactivated, that would otherwise interfere with the subsequently performed enzymatic assay. […] Before analysis, plasma samples were centrifuged for 5 min at 16′000 g and the supernatant was collected. A twofold dilution series ranging from 0.0005-0.5 μM was prepared. IC50 values were derived from the fitted curve using the equation indicated above. Residual inhibition in % was calculated using the following formula: IC50, 0h/IC50, xh*100 wherein IC50, 0h is the functional strength of the inhibitor at time point 0 and IC50, xh the functional strength of inhibitor after one of the different plasma incubation period mentioned above.
(§7) The activity of the plasma proteases was heat-inactivated by incubation of the samples at 65° C. for 10 minutes.

[7] = biological target: T2, human β-FXIIa (Homo sapiens, UniProt P00748); test: Protease inhibition assay with fluorogenic substrate (Example 1); type: biochemical
T2 construct: human β-FXIIa, a naturally occurring proteolytic product of FXIIa comprising only the catalytic domain; purchased Molecular Innovations HFXIIAB
Method: The inhibitory activity of bicyclic peptides was determined by incubation with proteases and quantification of their residual activity with a fluorogenic substrate. Final concentration of human b-FXIIa (HFXIIAB; Molecular Innovations) and mouse α-FXIIa (MFXIIA; Molecular Innovations) was 10 nM. Dilutions of peptides were prepared ranging from 0.2-200 mM. Fluorescence intensity was measured with an Infinite M200Pro fluorescence plate reader (excitation at 355 nm, emission at 460 nm; Tecan, Männedorf, Switzerland). The reactions were performed at RT. Sigmoidal curves were fitted to the data using the following dose response equation wherein x=peptide concentration, y=% activity of reaction without peptide, A1=100%, A2=0%, p=1. IC50 values were derived from the fitted curve.
The inhibitory constant Ki was calculated according to the equation of Cheng and Prusoff^29 Ki=/050/(1+([S]0/Km) wherein IC50 is the functional strength of the inhibitor, [S]0 is the total substrate concentration, and Km is the Michaelis-Menten constant.

[8] = biological target: T3, FXII (Homo sapiens, UniProt P00748); test: FXII coagulant activity (FXII:c) in human plasma; type: biochemical; conditions: 50 μM
T3 construct: from tissue; host or cells: pooled fresh frozen human plasma
T3 sequence (P00748 20-615): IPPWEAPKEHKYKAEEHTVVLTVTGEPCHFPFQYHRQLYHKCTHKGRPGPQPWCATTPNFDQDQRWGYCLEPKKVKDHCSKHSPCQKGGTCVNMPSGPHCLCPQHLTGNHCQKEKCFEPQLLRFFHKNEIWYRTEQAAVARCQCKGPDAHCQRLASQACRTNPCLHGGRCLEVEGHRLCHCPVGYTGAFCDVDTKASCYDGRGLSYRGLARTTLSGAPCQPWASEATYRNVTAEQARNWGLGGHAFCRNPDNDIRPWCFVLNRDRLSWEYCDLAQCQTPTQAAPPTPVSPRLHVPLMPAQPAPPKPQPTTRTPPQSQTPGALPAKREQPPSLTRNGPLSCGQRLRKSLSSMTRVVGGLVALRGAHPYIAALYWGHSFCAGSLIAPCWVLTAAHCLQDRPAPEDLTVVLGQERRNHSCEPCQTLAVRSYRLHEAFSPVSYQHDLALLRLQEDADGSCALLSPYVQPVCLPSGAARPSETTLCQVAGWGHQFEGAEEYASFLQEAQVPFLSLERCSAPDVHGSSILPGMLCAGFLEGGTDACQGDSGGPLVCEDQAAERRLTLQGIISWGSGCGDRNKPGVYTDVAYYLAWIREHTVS
Method: as §1, §2

[9] = tested on: intrinsic pathway (contact activation); test: Thrombin generation assay by CAT triggered by ellagic acid; type: biochemical, human; conditions: ellagic acid trigger, 20 μg/mL
Method: as §3

[10] = biological target: T4, trypsin (Homo sapiens, UniProt P07477); test: Specificity FXII618 vs CTI, trypsin; type: biochemical
[11] = Plasma stability assay; conditions: human
Method: as §6, §7

[12] = tested on: structurally related or functionally important proteases; test: Specificity testing (Example 2), other proteases; type: biochemical, human
Method: (§4) For the specificity testing the following final concentrations of human serine proteases were used: tPA (Molecular Innovations) 7.5 nM, uPA (Molecular Innovations) 1.5 nM, factor XIa (Innovative Research, Novi, Mich., U.S.) 6 nM, PK (Innovative Research) 0.25 nM, thrombin (Molecular Innovations) 1 nM, plasmin (Molecular Innovations) 2.5 nM, trypsin (Molecular Innovations) 0.05 nM, factor VIIa (Haematologic Technologies Inc.) 50 nM and factor Xa (Haematologic Technologies Inc,) 6 nM.
(§5) Dilutions of peptides were prepared ranging from 0.04 to 40 μM.

[13] = tested on: intrinsic coagulation pathway; test: aPTT in human plasma (Example 2); type: biochemical
Method: Coagulation times (aPTT, PT) were determined in human plasma using a blood coagulation analyzer (STart. Hemostasis coagulation analyzer, Diagnostica Stago). Extrinsic coagulation was triggered with Innovin (recombinant human tissue factor, synthetic phospholipids and calcium in stabilized HEPES buffer system; Dade Behring; Siemens). Intrinsic coagulation was triggered with Pathromtin* SL (Siemens). Pooled normal human plasma used in this study was provided by Innovative research (USA).
The ability to selectively suppress the intrinsic coagulation pathway was assessed in in vitro coagulation assays. Activated partial thromboplastin time (aPTT) and prothrombin time (PT) measure the time to coagulation upon initiation of coagulation either via the intrinsic (aPTT) or the extrinsic pathway (PT). These tests have been performed in human plasma in the presence of different concentrations of FXIIa-inhibitors. Selective FXIIa inhibition is expected to increase aPTT but not PT. […] At a concentration of 5 μM peptide inhibitor no coagulation via the intrinsic pathway occurred within 120 s. Additionally, there was a correlation between inhibitory activity against FXIIa and extent of aPTT prolongation.

[14] = biological target: T4, trypsin; test: Specificity testing (Example 2), trypsin; type: biochemical; parameters: purchased Molecular Innovations
Method: as §4, §5

[15] = absence of extrinsic- or intrinsic-specific trigger, 100 μg/mL inhibitor

CC(C)C[C@@H]1NC(=O)[C@H](CCC(N)=O)NC(=O)[C@H](CCCNC(=N)N)NC(=O)[C@@H]2CSCCC(=O)N3CN(CN(C3)C(=O)CCSC[C@H](NC(=O)[C@@H](N)CCCNC(=N)N)C(=O)N[C@@H](Cc3ccccc3)C(=O)N[C@@H](CCCNC(=N)N)C(=O)N[C@@H](CC(C)C)C(=O)N3CCC[C@H]3C(=O)N2)C(=O)CCSC[C@@H](C(=O)N[C@@H](CCCNC(=N)N)C(N)=O)NC(=O)[C@H](CCCNC(=N)N)NC1=O [FXII618]
PT ([1]; 3.5 mg/kg FXII618 combined with 3.5 mg/kg PK128): 7.1 ± 0.2 s | FXII activity ([1]; 3.5 mg/kg FXII618 combined with 3.5 mg/kg PK128 r.o., blood after five minutes): 49.7+/−13.9% | aPTT ([2]; citrated platelet poor plasma, 100 μg/mL inhibitor): > 170 s | aPTT ([2]; human plasma, 40 μM): > 170 s | effect on extrinsic pathway (PT) [3]: without affecting the extrinsic pathway | lag time ([4]; 0.25 pM TF, 100 μg/mL inhibitor): 12.3±0.3 | lag time [4, 15]: 55.8±3.7 | peak [4, 15]: 60.3±0.8 | effect on TF-induced thrombin generation ([4]; high concentration of TF, 100 μg/mL inhibitor): did not affect TF-induced thrombin generation | thrombin activation ([4]; inhibitor added to whole blood immediately after sampling, no trigger): completely block thrombin activation | effect on thrombin generation [5]: no significant effect | half-life at 10 μM [6]: 3.9 ± 1.9 h | more potent than PCK ([7]; compared to PCK): around 8 fold | more potent than inhibitor 44 ([7]; compared to small molecule FXIIa inhibitor 44): > 200 fold | improvement in inhibiting human FXIIa ([7]; in comparison to parent FXII516): 8 fold | FXII coagulant activity (FXII:c) [8]: < 5% | reduction of endogenous thrombin potential (ETP) [9]: > 90% | reduction of peak [9]: > 90% | inhibition of trypsin ([10]; at a concentration as high as 1000 nM): no inhibition | trypsin inhibition weaker compared to CTI ([10]; compared to CTI): around 100 fold

CC(C)C[C@@H]1NC(=O)[C@H](CCC(N)=O)NC(=O)[C@H](Cc2c[nH]cn2)NC(=O)[C@@H]2CSCCC(=O)N3CN(CN(C3)C(=O)CCSC[C@H](NC(=O)[C@@H](CO)NC(=O)[C@H](N)CCCNC(=N)N)C(=O)N[C@@H](Cc3ccc(F)cc3)C(=O)N[C@@H](CCCNC(=N)N)C(=O)N[C@@H](CC(C)C)C(=O)N3CCC[C@H]3C(=O)N2)C(=O)CCSC[C@@H](C(N)=O)NC(=O)C[C@H](CCCNC(=N)N)NC1=O [JS33-R] (H-[dR][dS]C[Phe(4-F)]RLPCHQL[β3hR]C-NH2; linker 3-8-13 via TATA; N-terminus and C-terminus assumed)
half-life at 10 μM [11]: 127 h

CC(C)C[C@@H]1NC(=O)[C@H](CCC(N)=O)NC(=O)[C@H](CCCNC(=N)N)NC(=O)[C@@H]2CSCCC(=O)N3CN(CN(C3)C(=O)CCSC[C@H](NC(=O)[C@@H](N)CCNC(=N)N)C(=O)N[C@@H](Cc3ccc(F)cc3)C(=O)N[C@@H](CCCNC(=N)N)C(=O)N[C@@H](CC(C)C)C(=O)N3CCC[C@H]3C(=O)N2)C(=O)CCSC[C@@H](C(=O)N[C@@H](CCCNC(=N)N)C(N)=O)NC(=O)[C@H](CCCNC(=N)N)NC1=O [peptide 73]
selectivity over other plasma proteases [12]: ≥ 11,000 fold | inhibition of eight of the ten proteases ([12]; highest concentration tested (40 μM)): less than 20% | half-life at 10 μM [6]: 15.5 ± 3.9 h | aPTT prolongation compared with peptide 1 [13]: significantly increased aPTT prolongation | selectivity over trypsin [14]: 300 fold
